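Assay format: 96-well plates, 48-hour exposure. The concentration for full growth arrest is given as TGI.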
Tests used:
Assay in all cases: inhibition of tumour cell growth, NCI panel, 48 h
OVCAR-4 ovarian = system: OVCAR-4 ovarian
KM12 colon = system: KM12 colon
OVCAR-5 ovarian = system: OVCAR-5 ovarian
PC-3 prostate = system: PC-3 prostate
TK-10 renal = system: TK-10 renal
MDA-MB-435 = system: MDA-MB-435
T-47D breast = system: T-47D breast
NCI-H460 lung = system: NCI-H460 lung
A549 NSCLC = system: A549 NSCLC
K-562 leukemia = system: K-562 leukemia
HOP-92 NSCLC = system: HOP-92 NSCLC
SK-MEL-5 melanoma = system: SK-MEL-5 melanoma
IGROV1 ovarian = system: IGROV1 ovarian
CCRF-CEM leukemia = system: CCRF-CEM leukemia
RXF 393 renal = system: RXF 393 renal
HCT-15 colon = system: HCT-15 colon
EKVX NSCLC = system: EKVX NSCLC
NCI-H23 lung = system: NCI-H23 lung
U251 CNS = system: U251 CNS
MOLT-4 leukemia = system: MOLT-4 leukemia
HCT-116 colon = system: HCT-116 colon
OVCAR-3 ovarian = system: OVCAR-3 ovarian
UACC-62 melanoma = system: UACC-62 melanoma
SW-620 colon = system: SW-620 colon
DU-145 prostate = system: DU-145 prostate
HS 578T breast = system: HS 578T breast
RPMI-8226 leukemia = system: RPMI-8226 leukemia
SK-MEL-2 melanoma = system: SK-MEL-2 melanoma
SK-OV-3 ovarian = system: SK-OV-3 ovarian
OVCAR-8 ovarian = system: OVCAR-8 ovarian
LOX IMVI melanoma = system: LOX IMVI melanoma
HL-60(TB) leukemia = system: HL-60(TB) leukemia
ACHN renal = system: ACHN renal
HOP-62 NSCLC = system: HOP-62 NSCLC
MCF7 breast = system: MCF7 breast
SF-268 CNS = system: SF-268 CNS
M14 melanoma = system: M14 melanoma
COLO 205 colon = system: COLO 205 colon
BT-549 breast = system: BT-549 breast
SNB-19 CNS = system: SNB-19 CNS
SN12C renal = system: SN12C renal
NCI-H226 lung = system: NCI-H226 lung
786-0 renal = system: 786-0 renal
HT29 colon = system: HT29 colon
SK-MEL-28 melanoma = system: SK-MEL-28 melanoma
SR leukemia = system: SR leukemia
SNB-75 CNS = system: SNB-75 CNS
HCC-2998 colon = system: HCC-2998 colon
MDA-MB-231 breast = system: MDA-MB-231 breast
SF-539 CNS = system: SF-539 CNS
MALME-3M melanoma = system: MALME-3M melanoma
SF-295 CNS = system: SF-295 CNS
UO-31 renal = system: UO-31 renal
MDA-N = system: MDA-N
NCI/ADR-RES ovarian = system: NCI/ADR-RES ovarian
UACC-257 melanoma = system: UACC-257 melanoma
A498 renal = system: A498 renal
NCI-H522 lung = system: NCI-H522 lung
CAKI-1 renal = system: CAKI-1 renal

CCOC(=O)CC(=O)C(=O)NNC1=NCCCN1 gave a TGI (OVCAR-4 ovarian) of over 100 µM, a TGI (KM12 colon) of over 100 µM and a TGI (OVCAR-5 ovarian) of over 100 µM. For the same compound, the TGI (PC-3 prostate) was over 100 µM, the TGI (TK-10 renal) was over 100 µM and the TGI (MDA-MB-435) was over 100 µM. For the same compound, the TGI (T-47D breast) was over 100 µM, the TGI (NCI-H460 lung) was over 100 µM and the TGI (A549 NSCLC) was over 100 µM. It also gave a TGI (K-562 leukemia) of over 100 µM, a TGI (HOP-92 NSCLC) of over 100 µM and a TGI (SK-MEL-5 melanoma) of over 100 µM. It also gave a TGI (IGROV1 ovarian) of over 100 µM, a TGI (CCRF-CEM leukemia) of over 100 µM and a TGI (RXF 393 renal) of over 100 µM. It also gave a TGI (HCT-15 colon) of over 100 µM, a TGI (EKVX NSCLC) of over 100 µM and a TGI (NCI-H23 lung) of over 100 µM. For the same compound, the TGI (U251 CNS) was over 100 µM, the TGI (MOLT-4 leukemia) was over 100 µM and the TGI (HCT-116 colon) was over 100 µM. It also gave a TGI (OVCAR-3 ovarian) of over 100 µM, a TGI (UACC-62 melanoma) of over 100 µM and a TGI (SW-620 colon) of over 100 µM. It also gave a TGI (DU-145 prostate) of over 100 µM, a TGI (HS 578T breast) of over 100 µM and a TGI (RPMI-8226 leukemia) of over 100 µM. The TGI (SK-MEL-2 melanoma) was over 100 µM, the TGI (SK-OV-3 ovarian) was over 100 µM and the TGI (OVCAR-8 ovarian) was over 100 µM. For the same compound, the TGI (LOX IMVI melanoma) was over 100 µM, the TGI (HL-60(TB) leukemia) was over 100 µM and the TGI (ACHN renal) was over 100 µM. It also gave a TGI (HOP-62 NSCLC) of over 100 µM, a TGI (MCF7 breast) of over 100 µM and a TGI (SF-268 CNS) of over 100 µM. For the same compound, the TGI (M14 melanoma) was over 100 µM, the TGI (COLO 205 colon) was over 100 µM and the TGI (BT-549 breast) was over 100 µM. The TGI (SNB-19 CNS) was over 100 µM, the TGI (SN12C renal) was over 100 µM and the TGI (NCI-H226 lung) was over 100 µM. The TGI (786-0 renal) was over 100 µM, the TGI (HT29 colon) was over 100 µM and the TGI (SK-MEL-28 melanoma) was over 100 µM. The TGI (SR leukemia) was over 100 µM, the TGI (SNB-75 CNS) was over 100 µM and the TGI (HCC-2998 colon) was over 100 µM. It also gave a TGI (MDA-MB-231 breast) of over 100 µM, a TGI (SF-539 CNS) of over 100 µM and a TGI (MALME-3M melanoma) of over 100 µM. For the same compound, the TGI (SF-295 CNS) was over 100 µM, the TGI (UO-31 renal) was over 100 µM and the TGI (MDA-N) was over 100 µM.

Compound CCOC(=O)/C(=C\NCC(OCC)OCC)c1nc2ccccc2[nH]1 has a TGI (OVCAR-4 ovarian) of over 100 µM, a TGI (KM12 colon) of over 100 µM and a TGI (OVCAR-5 ovarian) of over 100 µM. It also gave a TGI (PC-3 prostate) of 63.7 µM, a TGI (TK-10 renal) of over 100 µM and a TGI (MDA-MB-435) of 73.3 µM. For the same compound, the TGI (T-47D breast) was 94.5 µM, the TGI (NCI-H460 lung) was 71.5 µM and the TGI (A549 NSCLC) was over 100 µM. For the same compound, the TGI (K-562 leukemia) was 81 µM, the TGI (HOP-92 NSCLC) was over 100 µM and the TGI (SK-MEL-5 melanoma) was 28.5 µM. For the same compound, the TGI (IGROV1 ovarian) was over 100 µM, the TGI (CCRF-CEM leukemia) was over 100 µM and the TGI (RXF 393 renal) was over 100 µM. The TGI (HCT-15 colon) was 51.8 µM, the TGI (EKVX NSCLC) was 95 µM and the TGI (NCI-H23 lung) was 56.4 µM. It also gave a TGI (U251 CNS) of over 100 µM, a TGI (MOLT-4 leukemia) of 41.3 µM and a TGI (HCT-116 colon) of over 100 µM. For the same compound, the TGI (OVCAR-3 ovarian) was 61.9 µM, the TGI (UACC-62 melanoma) was 33.2 µM and the TGI (SW-620 colon) was over 100 µM. The TGI (DU-145 prostate) was over 100 µM, the TGI (HS 578T breast) was over 100 µM and the TGI (NCI/ADR-RES ovarian) was 24.4 µM. The TGI (RPMI-8226 leukemia) was 39.5 µM, the TGI (SK-MEL-2 melanoma) was 44.7 µM and the TGI (UACC-257 melanoma) was 58.7 µM. It also gave a TGI (SK-OV-3 ovarian) of over 100 µM, a TGI (OVCAR-8 ovarian) of over 100 µM and a TGI (LOX IMVI melanoma) of 55.4 µM. For the same compound, the TGI (HL-60(TB) leukemia) was 52.3 µM, the TGI (ACHN renal) was over 100 µM and the TGI (HOP-62 NSCLC) was over 100 µM. For the same compound, the TGI (MCF7 breast) was over 100 µM, the TGI (SF-268 CNS) was over 100 µM and the TGI (M14 melanoma) was over 100 µM. It also gave a TGI (A498 renal) of over 100 µM, a TGI (COLO 205 colon) of 39.6 µM and a TGI (BT-549 breast) of 62.4 µM. The TGI (SNB-19 CNS) was over 100 µM, the TGI (SN12C renal) was over 100 µM and the TGI (NCI-H226 lung) was over 100 µM. It also gave a TGI (786-0 renal) of over 100 µM, a TGI (HT29 colon) of 71.1 µM and a TGI (NCI-H522 lung) of 62.1 µM. The TGI (SK-MEL-28 melanoma) was 77 µM, the TGI (CAKI-1 renal) was over 100 µM and the TGI (SR leukemia) was 58.5 µM. It also gave a TGI (SNB-75 CNS) of 61.6 µM, a TGI (HCC-2998 colon) of 51.3 µM and a TGI (SF-539 CNS) of over 100 µM. The TGI (MALME-3M melanoma) was 61.5 µM, the TGI (SF-295 CNS) was over 100 µM and the TGI (UO-31 renal) was over 100 µM. For the same compound, the TGI (MDA-N) was 85.2 µM.

Source: PubChem BioAssay (NCI)
